Results reported in patent US20260176265A1 (Cancer Research Technology Limited, priority 2022, published 2026).

Key:
[1] = molecular target: T1, Phospho-EGFR (Tyr1068) in H1975 cells (Homo sapiens, UniProt P00533, L858R/T790M); experiment: HTRF pEGFR/total EGFR assay in H1975 cells; type: cell-based; conditions: compound 3 hours, ratio pEGFR/total EGFR
T1 construct: host or cells: H1975
In short: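 H1975 cells (EGFR L858R/T790M) adhered 24 h, then compound-treated for 3 h in duplicate, 0.1% DMSO final. Lysates read by HTRF at 665/620 nm for phospho-Tyr1068 and total EGFR. Value is pEGFR/total EGFR ratio as % of 0 uM control.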

[2] = molecular target: CtermHisTag-mEGFR Triple Mutant - C797S, L858R, T790M (Homo sapiens, UniProt P00533, C797S/L858R/T790M); experiment: TR-FRET probe displacement assay, EGFR triple mutant; type: binding; conditions: T790M 1.25 nM, probe 100 nM, 30 mins room temperature
In short: (§1)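 Ten-point compound series, 100000 to 3 nM final, tested against His-tagged EGFR (wild type or C797S/L858R/T790M) for probe displacement. TR-FRET read at Ex337 nm, Em490/520 nm; run in technical replicate, biological duplicate.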

[3] = molecular target: T2, Phospho-EGFR (Tyr1068) in A431 cells (Homo sapiens, UniProt P00533); experiment: HTRF pEGFR/total EGFR assay in A431 cells (EGF stimulated); type: cell-based; conditions: compound 2.5 hours then 100 ng/ml EGF 30 mins, ratio pEGFR/total EGFR
T2 construct: endogenous in cells; host or cells: A431
In short: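 A431 cells pretreated with compounds 2.5 h (0.1% DMSO), then stimulated with 100 ng/ml EGF for 30 min. Lysates assayed by HTRF for phospho-EGFR (Tyr1068) and total EGFR, read at 665/620 nm. Values are pEGFR/total EGFR ratio as percentage of 0uM control.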

[4] = molecular target: CtermHisTag-mEGFR Wild type (Homo sapiens, UniProt P00533); experiment: TR-FRET probe displacement assay, EGFR wild type; type: binding; conditions: EGFR wild type 1.25 nM, probe 100 nM, 30 mins room temperature
In short: as §1

[5] = molecular target: T3, Phospho-EGFR (Tyr1068) in H1975 C797S cells (Homo sapiens, UniProt P00533, C797S/L858R/T790M); experiment: HTRF pEGFR/total EGFR assay in H1975 C797S cells; type: cell-based; conditions: H1975 C797S cells (CRISPR), compound 3 hours, ratio pEGFR/total EGFR
T3 construct: endogenous in cells; host or cells: H1975 C797S (CRISPR-edited in house from ATCC CRL-5908)
In short: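 H1975 cells carrying CRISPR-engineered EGFR C797S (with L858R/T790M) were exposed to compounds for 3 h at 0.1% DMSO, in duplicate. Lysates were read with HTRF kits for pEGFR Tyr1068 and total EGFR at 665/620 nm. Values are the pEGFR/total EGFR ratio as percent of the 0 uM control.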

Sequence of CtermHisTag-mEGFR Wild type (P00533 25-1210): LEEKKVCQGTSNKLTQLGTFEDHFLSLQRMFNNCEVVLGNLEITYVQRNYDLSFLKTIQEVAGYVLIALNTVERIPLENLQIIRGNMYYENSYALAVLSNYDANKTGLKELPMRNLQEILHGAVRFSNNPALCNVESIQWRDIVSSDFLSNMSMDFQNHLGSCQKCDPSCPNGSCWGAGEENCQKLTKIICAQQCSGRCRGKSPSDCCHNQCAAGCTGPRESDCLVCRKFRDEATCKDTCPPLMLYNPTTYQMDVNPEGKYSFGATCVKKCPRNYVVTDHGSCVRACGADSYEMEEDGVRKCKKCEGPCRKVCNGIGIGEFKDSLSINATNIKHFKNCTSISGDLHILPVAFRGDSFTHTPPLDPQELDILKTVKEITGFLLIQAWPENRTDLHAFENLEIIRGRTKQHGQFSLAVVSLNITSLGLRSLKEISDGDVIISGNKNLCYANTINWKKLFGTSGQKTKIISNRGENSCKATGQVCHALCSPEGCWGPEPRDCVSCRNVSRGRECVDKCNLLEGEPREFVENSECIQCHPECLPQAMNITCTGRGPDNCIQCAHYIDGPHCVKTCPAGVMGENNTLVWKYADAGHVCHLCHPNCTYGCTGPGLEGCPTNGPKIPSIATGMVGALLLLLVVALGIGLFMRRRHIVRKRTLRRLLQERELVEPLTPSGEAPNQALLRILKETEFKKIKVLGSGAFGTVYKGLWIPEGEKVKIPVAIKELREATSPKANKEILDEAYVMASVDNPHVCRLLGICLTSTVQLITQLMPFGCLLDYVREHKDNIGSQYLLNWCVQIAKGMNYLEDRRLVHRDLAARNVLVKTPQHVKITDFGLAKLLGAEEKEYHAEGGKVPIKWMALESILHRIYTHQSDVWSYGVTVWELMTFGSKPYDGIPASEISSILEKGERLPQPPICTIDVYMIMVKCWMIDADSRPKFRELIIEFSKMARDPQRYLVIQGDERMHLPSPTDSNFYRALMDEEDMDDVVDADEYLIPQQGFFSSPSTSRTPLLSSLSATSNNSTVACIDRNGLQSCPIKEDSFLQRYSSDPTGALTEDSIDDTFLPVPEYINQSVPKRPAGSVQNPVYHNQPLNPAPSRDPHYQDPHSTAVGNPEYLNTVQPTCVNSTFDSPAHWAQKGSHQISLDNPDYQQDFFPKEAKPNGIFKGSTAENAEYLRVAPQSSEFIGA
T2 sequence (P00533 25-1210): as above
T3 sequence (P00533 25-1210 T790M/C797S/L858R): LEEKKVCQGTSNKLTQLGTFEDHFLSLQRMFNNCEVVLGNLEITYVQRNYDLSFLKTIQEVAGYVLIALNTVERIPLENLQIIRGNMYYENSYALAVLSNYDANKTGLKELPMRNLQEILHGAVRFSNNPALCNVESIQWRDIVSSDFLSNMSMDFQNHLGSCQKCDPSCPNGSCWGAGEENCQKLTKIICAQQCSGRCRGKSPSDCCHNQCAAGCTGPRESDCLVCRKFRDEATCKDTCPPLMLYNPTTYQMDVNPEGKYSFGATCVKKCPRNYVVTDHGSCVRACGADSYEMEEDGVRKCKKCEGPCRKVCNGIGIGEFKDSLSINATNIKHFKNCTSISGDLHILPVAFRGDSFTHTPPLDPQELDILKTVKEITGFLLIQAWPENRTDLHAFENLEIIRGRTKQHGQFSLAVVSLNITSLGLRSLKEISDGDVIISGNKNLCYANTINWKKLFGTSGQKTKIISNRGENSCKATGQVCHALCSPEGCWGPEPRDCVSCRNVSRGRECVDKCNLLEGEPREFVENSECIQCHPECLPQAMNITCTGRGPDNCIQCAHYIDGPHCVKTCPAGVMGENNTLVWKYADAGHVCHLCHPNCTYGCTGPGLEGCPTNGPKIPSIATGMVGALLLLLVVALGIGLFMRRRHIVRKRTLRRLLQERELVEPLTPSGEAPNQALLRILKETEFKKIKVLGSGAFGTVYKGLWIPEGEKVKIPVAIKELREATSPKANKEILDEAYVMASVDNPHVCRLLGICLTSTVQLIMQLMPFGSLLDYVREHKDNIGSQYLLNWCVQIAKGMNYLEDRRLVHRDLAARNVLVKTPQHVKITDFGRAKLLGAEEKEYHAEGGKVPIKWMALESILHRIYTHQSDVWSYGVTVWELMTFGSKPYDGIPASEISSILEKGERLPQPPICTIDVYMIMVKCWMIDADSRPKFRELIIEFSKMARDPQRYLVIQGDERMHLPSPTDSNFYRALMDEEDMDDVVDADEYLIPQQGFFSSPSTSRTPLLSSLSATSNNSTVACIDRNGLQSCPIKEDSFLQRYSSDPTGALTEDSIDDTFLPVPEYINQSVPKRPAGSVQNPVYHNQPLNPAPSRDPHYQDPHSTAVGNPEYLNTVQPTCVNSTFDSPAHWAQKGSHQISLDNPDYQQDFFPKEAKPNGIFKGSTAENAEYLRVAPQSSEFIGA
Sequence of CtermHisTag-mEGFR Triple Mutant - C797S, L858R, T790M (P00533 25-1210 T790M/C797S/L858R): as above

Compound | IC50 [1] | IC50 [2] | IC50 [3] | IC50 [4] | IC50 [5]
C#Cc1cc(N2C(=O)N(C)CC2C(C)C)nc2nc(Nc3ccc(N4CCN(C)CC4)cc3)ncc12 (stereo not shown) [Example 102, 3-(5-Ethynyl-2-{[4-(4-methylpiperazin-1-yl)phenyl]amino}pyrido[2,3-d]pyrimidin-7-yl)-4-isopropyl-1-methylmidazolidin-2-one] | > 3 µM | < 0.02 µM | > 3 µM | 1 to 10 µM | > 3 µM
C#Cc1cc(N2C(=O)N(C)CC23CCCC3)nc2nc(Nc3ccc(N4CCN(C5COC5)CC4)cc3)ncc12 [Example 104, 1-[5-Ethynyl-2-([4-[4-(oxetan-3-yl)piperazin-1-yl]phenyl]amino)pyrido[2,3-d]pyrimidin-7-yl]-3-methyl-1,3-diazaspiro[4.4]nonan-2-one] | 1 to 3 µM | 0.02 to 0.1 µM | > 3 µM | < 1 µM | 1 to 3 µM
C#Cc1cc(N2C(=O)N(C)CC23CCCC3)nc2nc(Nc3ccc(N(C)C(C)=O)cc3)ncc12 [Example 105, N-{4-[(5-Ethynyl-7-{3-methyl-2-oxo-1,3-diazaspiro[4.4]nonan-1-yl}pyrido[2,3-d]pyrimidin-2-yl)amino]phenyl}-N-methylacetamide] | > 3 µM | 0.1 to 1 µM | > 3 µM | > 10 µM | > 3 µM
C#Cc1cc(N2C(=O)N(C)CC23CCCC3)nc2nc(Nc3ccc(N(C)C(=O)CN(C)C)cc3)ncc12 [Example 106, 2-(Dimethylamino)-N-{4-[(5-ethynyl-7-{3-methyl-2-oxo-1,3-diazaspiro[4.4]nonan-1-yl}pyrido[2,3-d]pyrimidin-2-yl)amino}phenyl]-N-methylacetamide] | > 3 µM | 0.1 to 1 µM | 1 to 3 µM | 1 to 10 µM | 1 to 3 µM
C#Cc1cc(N2C(=O)N(C)CC23CCCC3)nc2nc(Nc3ccc(OCCN(C)C)cc3)ncc12 [Example 107] | 1 to 3 µM | 0.1 to 1 µM | > 3 µM | 1 to 10 µM | 1 to 3 µM
C#Cc1cc(N2C(=O)N(C)CC23CCCC3)nc2nc(Nc3ccc(S(C)(=O)=O)cc3)ncc12 [Example 108, 1-{5-Ethynyl-2-[(4-methanesulfonylphenyl)amino]pyrido [2,3-d]pyrimidin-7-yl}-3-methyl-1,3-diazaspiro [4.4]nonan-2-one] | > 3 µM | 0.02 to 0.1 µM | 1 to 3 µM | > 10 µM | > 3 µM
C#Cc1cc(N2C(=O)N(C)CC23CCCC3)nc2nc(Nc3ccc(S(=O)(=O)N(C)C)cc3)ncc12 [Example 109, 4-[(5-Ethynyl-7-{3-methyl-2-oxo-1,3-diazaspiro[4.4]nonan-1-yl}pyrido[2,3-d]pyrimidin-2-yl)amino]-N,N-dimethylbenzenesulfonamide] | > 3 µM | 0.1 to 1 µM | 1 to 3 µM | > 10 µM | > 3 µM
C#Cc1cc(N2C(=O)N(C)CC23CCCC3)nc2nc(Nc3ccc(S(=O)(=O)N(C)CCN(C)C)cc3)ncc12 [Example 110, N-[2-(Dimethylamino)ethyl]-4-[(5-ethynyl-7-{3-methyl-2-oxo-1,3-diazaspiro[4.4]nonan 1-yl}pyrido[2,3-d]pyrimidin-2-yl)amino]-N-methylbenzenesulfonamide] | > 3 µM | 0.1 to 1 µM | > 3 µM | > 10 µM | > 3 µM

Other lines, results leading:

IC50 [1] | IC50 [2] | IC50 [3] | IC50 [4] | IC50 [5] | Compound
< 0.5 µM | < 0.02 µM | > 3 µM | < 1 µM | < 0.5 µM | C#Cc1cc(N2C(=O)NC[C@@H]2C(C)C)nc2nc(Nc3ccc(N4CCN(C)CC4)cc3)ncc12 [Example 99, (5S)-1-(5-Ethynyl-2-{[4-(4-methylpiperazin-1-yl)phenyl]amino}pyrido[2,3-d]pyrimidin-7-yl)-5-isopropylmidazolidin-2-one]
0.5 to 1 µM | 0.1 to 1 µM | > 3 µM | > 10 µM | 1 to 3 µM | C#Cc1cc(N2C(=O)NC[C@H]2C(C)C)nc2nc(Nc3ccc(N4CCN(C)CC4)cc3)ncc12 [Example 100, (5R)-1-(5-Ethynyl-2-{[4-(4-methylpiperazin-1-yl)phenyl]amino}pyrido[2,3-d]pyrimidin-7-yl)-5-isopropylmidazolidin-2-one]
0.5 to 1 µM | 0.02 to 0.1 µM | > 3 µM | 1 to 10 µM | > 3 µM | C#Cc1cc(N2C(=O)NC[C@H]2COC)nc2nc(Nc3ccc(N4CCN(C)CC4)cc3)ncc12 [Example 101, (5S)-1-(5-Ethynyl-2-{[4-(4-methylpiperazin-1-yl)phenyl]amino}pyrido[2,3-d]pyrimidin-7-yl)-5-(methoxymethyl)imidazolidin-2-one]
< 0.5 µM | 0.02 to 0.1 µM | 1 to 3 µM | < 1 µM | < 0.5 µM | C#Cc1cc(N2C(=O)N(C)CC23CCCC3)nc2nc(Nc3ccc(N4CCOCC4)cc3)ncc12 [Example 103, 1-(5-Ethynyl-2-{[4-(morpholin-4-yl)phenyl]amino}pyrido[2,3-d]pyrimidin-7-yl)-3-methyl-1,3-diazaspiro[4.4]nonan-2-one]
0.5 to 1 µM | < 0.02 µM | > 3 µM | 1 to 10 µM | 0.5 to 1 µM | C#Cc1cc(N2C(=O)OCC2C2CCCC2)nc2nc(Nc3ccc(N4CCN(C)CC4)cc3)ncc12 (stereo not shown) [Example 111, 4-Cyclopentyl-3-(5-ethynyl-2-{[4-(4-methylpiperazin-1-yl)phenyl]amino}pyrido[2,3-d]pyrimidin-7-yl)-1,3-oxazolidin-2-one]
0.5 to 1 µM | < 0.02 µM | > 3 µM | < 1 µM | 0.5 to 1 µM | C#Cc1cc(N2C(=O)OCC2CC2CCCC2)nc2nc(Nc3ccc(N4CCN(C)CC4)cc3)ncc12 (stereo not shown) [Example 112, 4-(Cyclopentylmethyl)-3-(5-ethynyl-2-{[4-(4-methylpiperazin-1-yl)phenyl]amino}pyrido[2,3-d]pyrimidin-7-yl)-1,3-oxazolidin-2-one]
0.5 to 1 µM | 0.02 to 0.1 µM | > 3 µM | > 10 µM | 1 to 3 µM | C#Cc1cc(N2CC(C(C)C)OC2=O)nc2nc(Nc3ccc(N4CCN(C)CC4)cc3)ncc12 (stereo not shown) [Example 113, 3-(5-Ethynyl-2-{[4-(4-methylpiperazin-1-yl)phenyl]amino}pyrido[2,3-d]pyrimidin-7-yl)-5-isopropyl-1.3-oxazolidin-2-one]
< 0.5 µM | < 0.02 µM | 1 to 3 µM | < 1 µM | 0.5 to 1 µM | C#Cc1cc(N2C(=O)OCC23CCCC3)nc2nc(Nc3ccc(N4CCN(C)CC4)cc3)ncc12 [Example 114, 1-(5-Ethynyl-2-{[4-(4-methylpiperazin-1-yl)phenyl]amino}pyrido[2,3-d]pyrimidin-7-yl)-3-oxa-1-azaspiro[4.4]nonan-2-one]
0.5 to 1 µM | < 0.02 µM | > 3 µM | 1 to 10 µM | > 3 µM | C#Cc1cc(N2C(=O)OCC2C2CCCC2)nc2nc(Nc3ccc(N4CCNCC4)cc3)ncc12 (stereo not shown) [Example 115, 4-Cyclopentyl-3-(5-ethynyl-2-{[4-(piperazin-1-yl)phenyl]amino}pyrido[2,3-d]pyrimidin-7-y0)-1,3-oxazolidin-2-one]
